Where two headings read alike, the source gives them in different places.
Key:
[1] = target: T1, dipeptidylaminopeptidase (enkephalinase B) (Macaca fascicularis, UniProt A0A7N9C8Y6); experiment: Enkephalinase B inhibiting effect; type: biochemical
T1 construct: releases Tyr-Gly from enkephalin
T1 sequence (A0A7N9C8Y6 1-737): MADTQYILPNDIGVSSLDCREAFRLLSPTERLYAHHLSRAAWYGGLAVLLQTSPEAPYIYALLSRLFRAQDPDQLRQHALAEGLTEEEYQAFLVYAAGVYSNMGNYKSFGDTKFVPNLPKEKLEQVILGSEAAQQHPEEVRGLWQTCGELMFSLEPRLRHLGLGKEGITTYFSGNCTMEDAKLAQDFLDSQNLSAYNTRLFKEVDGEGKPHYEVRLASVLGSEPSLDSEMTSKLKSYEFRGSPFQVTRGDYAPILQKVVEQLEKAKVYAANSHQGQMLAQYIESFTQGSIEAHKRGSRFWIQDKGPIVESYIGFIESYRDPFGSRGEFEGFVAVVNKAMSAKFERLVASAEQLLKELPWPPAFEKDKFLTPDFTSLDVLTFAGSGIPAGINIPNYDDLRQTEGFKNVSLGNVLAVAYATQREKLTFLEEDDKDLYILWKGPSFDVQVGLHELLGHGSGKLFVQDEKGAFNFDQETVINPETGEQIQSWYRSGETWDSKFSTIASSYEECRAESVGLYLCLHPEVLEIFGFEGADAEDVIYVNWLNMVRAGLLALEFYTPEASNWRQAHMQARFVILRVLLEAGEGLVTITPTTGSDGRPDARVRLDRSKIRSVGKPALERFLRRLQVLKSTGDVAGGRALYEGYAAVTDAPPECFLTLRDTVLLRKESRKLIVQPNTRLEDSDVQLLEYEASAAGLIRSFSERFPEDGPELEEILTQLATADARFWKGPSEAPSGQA
Experimental: (§1) The cerebrum of Macaca Fascicularis was chopped using anatomical scissors, 3 volumes that of 25 mM tris-hydrochloric acid buffer (pH 7.7) was added thereto and the mixture homogenized. It was then ultracentrifuged (50,000×g), the supernatant was removed, and the obtained precipitants were treated and washed twice using the same buffer (these precipitates contained enkephalin decomposing enzymes in a form combined to the cell membrane).
(§2) Thereafter, 25 mM tris-hydrochloric acid buffer (pH 7.7) containing 1% of Triton X-100 was added to the precipitates to extract enkephalinase. […]
(§3) The obtained enkephalin decomposing enzymes were analyzed by acrylamide electrophoresis to find that they were single proteins respectively.
(§4) The enzymatic activity of the respective decomposing enzymes obtained above was measured by the qualitative and quantitative analyses of the decomposition products using [^3 H]-enkephalin or enkephalin as a substrate and employing Porapak Q (produced by Water Associates) column method, high-performance liquid chromatography (HPLC), silica gel thin layer autography, etc. […]

aminopeptidase = experiment: Aminopeptidase (enkephalin decomposing enzyme) inhibiting effect; type: biochemical, Macaca Fascicularis
Experimental: as §1, §2, §3, §4

carcinomatous pain = experiment: Carcinomatous pain treating tests (clinical examples); type: in vivo, human; details: one patient
Experimental: Further, using benzaldehyde and 4,6-O-benzylidene-D-glucose the following carcinomatous pain treating tests were conducted.
After hospitalization, 25 mg benzaldehyde tablets (enteric tablets containing benzaldehyde prepared in the above-described Formulation Example 5) were administered at a dosage of 5 tablets, 4 times a day.
Since variety of chemotherapeutics were not administered because there was a threat of strong side effects, the sole administration of 4,6-O-benzylidene-D-glucose was started in such a way that 1,200 mg of a freeze dried preparation thereof was dissolved in 100 ml of physiological saline and administered i.v. at a rate of once a day (time required being ca. 10 minutes).

[2] = Japanese Patent Application Laid-Open No. 108027/1977 and No. 70428/1979; cited from earlier work
[3] = target: T2, angiotensin converting enzyme (Macaca fascicularis, UniProt A0A2K5VWQ5); experiment: Angiotensin converting enzyme inhibiting effect; type: biochemical
T2 sequence (A0A2K5VWQ5 31-1307): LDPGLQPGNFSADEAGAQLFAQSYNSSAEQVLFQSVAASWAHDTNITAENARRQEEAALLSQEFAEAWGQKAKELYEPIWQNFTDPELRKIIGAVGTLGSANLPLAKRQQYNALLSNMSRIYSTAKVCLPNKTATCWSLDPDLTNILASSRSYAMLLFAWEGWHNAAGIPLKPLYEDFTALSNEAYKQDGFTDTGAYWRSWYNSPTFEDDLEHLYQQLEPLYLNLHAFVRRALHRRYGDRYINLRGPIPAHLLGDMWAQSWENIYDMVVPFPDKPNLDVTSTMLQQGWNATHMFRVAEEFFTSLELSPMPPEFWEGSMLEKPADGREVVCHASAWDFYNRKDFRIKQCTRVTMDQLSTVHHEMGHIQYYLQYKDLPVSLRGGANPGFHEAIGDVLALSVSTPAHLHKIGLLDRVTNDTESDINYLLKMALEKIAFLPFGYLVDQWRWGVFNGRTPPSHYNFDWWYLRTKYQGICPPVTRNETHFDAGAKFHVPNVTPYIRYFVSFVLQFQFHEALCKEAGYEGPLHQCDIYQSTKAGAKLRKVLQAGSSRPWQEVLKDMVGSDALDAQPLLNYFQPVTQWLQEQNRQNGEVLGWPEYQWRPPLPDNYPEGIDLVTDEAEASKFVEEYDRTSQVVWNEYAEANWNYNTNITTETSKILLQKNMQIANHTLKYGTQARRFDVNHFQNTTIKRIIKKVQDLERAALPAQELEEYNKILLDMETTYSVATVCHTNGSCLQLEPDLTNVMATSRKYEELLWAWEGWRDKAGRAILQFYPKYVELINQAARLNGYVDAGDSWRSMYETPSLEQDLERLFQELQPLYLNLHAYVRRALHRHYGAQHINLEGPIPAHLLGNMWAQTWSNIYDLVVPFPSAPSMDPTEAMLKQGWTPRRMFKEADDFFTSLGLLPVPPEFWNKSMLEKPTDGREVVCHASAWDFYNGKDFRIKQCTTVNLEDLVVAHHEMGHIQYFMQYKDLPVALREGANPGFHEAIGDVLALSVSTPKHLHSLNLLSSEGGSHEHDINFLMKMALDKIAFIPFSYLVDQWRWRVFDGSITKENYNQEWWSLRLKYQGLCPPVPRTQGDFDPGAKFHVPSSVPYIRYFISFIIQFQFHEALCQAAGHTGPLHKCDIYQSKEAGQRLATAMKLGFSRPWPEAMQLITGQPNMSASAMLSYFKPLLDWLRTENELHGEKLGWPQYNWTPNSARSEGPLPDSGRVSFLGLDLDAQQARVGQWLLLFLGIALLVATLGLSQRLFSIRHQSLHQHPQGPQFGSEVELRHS
Experimental: as §1, §2, §3, §4

[4] = Acute toxicity by subcutaneous injection in rats; details: rat, in vivo, sc
Description: Since both benzaldehyde and 4,6-O-benzylidene-D-glucose are substantially non-toxic a wide dosage range may be administered depending on the severity of the pain experienced. The acute toxicity of benzaldehyde and 4,6-O-benzylidene-D-glucose are 5 g/kg or higher and 4 g/kg or higher, respectively, when measured by subcutaneous injection in rats according to conventional toxicity procedures.

[5] = target: T3, dipeptidylcarboxypeptidase (enkephalinase A) (Macaca fascicularis, UniProt G7NZK8); experiment: Enkephalinase A inhibiting effect; type: biochemical; details: read-out: enzyme inhibiting effect on enkephalinase A
T3 construct: releases Tyr-Gly-Gly from [3H]Leu-enkephalin
T3 sequence (G7NZK8 2-750): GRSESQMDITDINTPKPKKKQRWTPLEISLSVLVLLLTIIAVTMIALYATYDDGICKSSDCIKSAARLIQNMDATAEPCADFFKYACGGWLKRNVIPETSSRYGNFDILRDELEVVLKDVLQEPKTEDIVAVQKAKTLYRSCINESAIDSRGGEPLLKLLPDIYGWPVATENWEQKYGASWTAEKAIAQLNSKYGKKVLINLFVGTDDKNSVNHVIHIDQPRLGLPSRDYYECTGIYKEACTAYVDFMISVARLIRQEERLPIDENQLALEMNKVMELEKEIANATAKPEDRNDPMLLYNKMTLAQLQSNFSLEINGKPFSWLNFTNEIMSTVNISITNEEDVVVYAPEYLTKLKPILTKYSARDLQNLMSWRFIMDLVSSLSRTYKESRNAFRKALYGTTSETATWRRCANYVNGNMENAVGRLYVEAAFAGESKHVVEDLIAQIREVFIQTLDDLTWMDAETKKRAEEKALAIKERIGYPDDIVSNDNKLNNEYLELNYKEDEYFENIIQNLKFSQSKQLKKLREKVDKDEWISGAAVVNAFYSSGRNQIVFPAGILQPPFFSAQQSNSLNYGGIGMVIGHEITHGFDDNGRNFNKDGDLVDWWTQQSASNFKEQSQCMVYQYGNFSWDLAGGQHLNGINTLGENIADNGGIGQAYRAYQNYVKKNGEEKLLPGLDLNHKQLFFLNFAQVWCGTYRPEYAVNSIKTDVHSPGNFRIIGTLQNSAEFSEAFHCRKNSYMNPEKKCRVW
Experimental: as §1, §2, §3
The enzymatic activity of the respective decomposing enzymes obtained above was measured by the qualitative and quantitative analyses of the decomposition products using [^3 H]-enkephalin or enkephalin as a substrate and employing Porapak Q (produced by Water Associates) column method, high-performance liquid chromatography (HPLC), silica gel thin layer autography, etc.
10 μl of 10 μCi [^3 H] […] Tyr-Gly-Gly was determined using a liquid scintillation counter. […]

Structure (SMILES) | enzyme inhibiting effect on enkephalinase B ([1]; 1.2 mg/ml) | enzyme inhibiting effect on aminopeptidase (aminopeptidase; 1.2 mg/ml) | pain (carcinomatous pain; gastric cancer metastasis to bone, 1,200 mg i.v. once a day, 17th to 18th day) | tumor condition by bone scintillation (carcinomatous pain; gastric cancer metastasis to bone, 1,200 mg i.v. once a day, 26th day, versus before administration) | mobility (carcinomatous pain; gastric cancer metastasis to bone, 1,200 mg i.v. once a day, from 10th day) | carcinostatic effect [2] | enzyme inhibiting effect on angiotensin converting enzyme ([3]; 1.2 mg/ml) | LD50 [4] [mg/kg] | inhibition at 1200 µg/mL ([5]; 1.2 mg/ml) [%] | enzyme inhibiting effect on enkephalinase B ([1]; 1 mg/ml) | enzyme inhibiting effect on aminopeptidase (aminopeptidase; 1 mg/ml) | pain (subjective symptom) (carcinomatous pain; mandible cancer relapse, 25 mg enteric tablets (Formulation Example 5), 5 tablets 4 times a day, oral, from 5th day) | carcinoma size by X-ray examination (carcinomatous pain; mandible cancer relapse, 25 mg enteric tablets, 5 tablets 4 times a day, oral) | pain (subjective symptom) (carcinomatous pain; mandible cancer relapse, 25 mg enteric tablets, 5 tablets 4 times a day, oral, 7th day) | enzyme inhibiting effect on angiotensin converting enzyme ([3]; 1 mg/ml) | LD50 ([4]; subcutaneous injection, rats, read-out: acute toxicity) [mg/kg] | inhibition at 1000 µg/mL [5] [%]
OC1O[C@@H]2COC(c3ccccc3)O[C@H]2[C@H](O)[C@H]1O (stereo partly drawn) [4,6-O-benzylidene-D-glucose] | did not exhibit an enzyme inhibiting effect | did not exhibit an enzyme inhibiting effect | the pain almost disappeared | the tumor condition was the same | became able to sit on bed | known to have carcinostatic effect | did not exhibit an enzyme inhibiting effect | ≥ 4000 | 81 |  |  |  |  |  |  |  | 
O=Cc1ccccc1 [benzaldehyde] |  |  |  |  |  | known to have carcinostatic effect |  |  |  | did not exhibit an enzyme inhibiting effect | did not exhibit an enzyme inhibiting effect | the pain was eased | did not reduce in size | almost no pain | did not exhibit an enzyme inhibiting effect | ≥ 5000 | 99

From patent US4613588A, “Benzaldehyde and 4,6-O-benzylidene-D-glucose for alleviating pain” (Kaken Pharmaceutical Co. Ltd., priority 1984, dated 1986)
